{"source": "patent US10174021B2", "about": "“Substituted pyrazolo[1,5-A]pyridines and their use” (BAYER PHARMA AKTIENGESELLSCHAFT, priority 2014, dated 2019)", "system": "recombinant guanylate cyclase reporter cell line", "assay": "Effect on a recombinant guanylate cyclase reporter cell line", "assay_type": "cell-based", "conditions": "in some cases mean values from individual determinations, read-out: MEC (minimum effective concentration)", "description": "B-2. Effect on a Recombinant Guanylate Cyclase Reporter Cell Line\nThe cellular activity of the compounds according to the invention is determined using a recombinant guanylate cyclase reporter cell line, as described in F. Wunder et al., Anal. Biochem. 339, 104-112 (2005).\nRepresentative MEC values (MEC=minimum effective concentration) for the compounds of the invention are shown in the table below (in some cases as mean values from individual determinations): […]"}
{"smiles": "Cc1cc(OCc2c(F)cccc2F)n2nc(C)c(-c3nc(NCC(C)(C)N)c4c(n3)NC(=O)C4(C)C)c2c1", "note": "[Example 35, 4-[(2-Amino-2-methylpropyl)amino]-2-{7-[(2,6-difluorobenzyl)oxy]-2,5-dimethylpyrazolo[1,5-a]pyridin-3-yl}-5,5-dimethyl-5,7-dihydro-6H-pyrrolo[2,3-d]pyrimidin-6-one]", "values": [{"measurement": "minimal effective concentration", "result": 3, "unit": "µM"}]}
